Test results from the CheMixHub viscosity set.
± gives the uncertainty stated by the source.

Test: xn = mol fraction of the nth substance listed

For `COCCOC` + CCCCCCO, the viscosity (293.15 K, 101 kPa, x1 = 0.03644) was 4.556 ± 0.049 mPa·s, the viscosity (293.15 K, 101 kPa, x1 = 0.07492) was 3.875 ± 0.041 mPa·s and the viscosity (293.15 K, 101 kPa, x1 = 0.1757) was 2.656 ± 0.028 mPa·s. The viscosity (293.15 K, 101 kPa, x1 = 0.2488) was 2.089 ± 0.022 mPa·s, the viscosity (293.15 K, 101 kPa, x1 = 0.3376) was 1.607 ± 0.017 mPa·s and the viscosity (293.15 K, 101 kPa, x1 = 0.4282) was 1.265 ± 0.013 mPa·s. It also gave a viscosity (293.15 K, 101 kPa, x1 = 0.5085) of 1.055 ± 0.011 mPa·s, a viscosity (293.15 K, 101 kPa, x1 = 0.5954) of 0.873 ± 0.009 mPa·s and a viscosity (293.15 K, 101 kPa, x1 = 0.6767) of 0.743 ± 0.008 mPa·s. For the same molecule, the viscosity (293.15 K, 101 kPa, x1 = 0.7648) was 0.633 ± 0.007 mPa·s, the viscosity (293.15 K, 101 kPa, x1 = 0.8067) was 0.59 ± 0.006 mPa·s and the viscosity (293.15 K, 101 kPa, x1 = 0.8909) was 0.547 ± 0.006 mPa·s. The viscosity (293.15 K, 101 kPa, x1 = 0.9608) was 0.506 ± 0.005 mPa·s, the viscosity (303.15 K, 101 kPa, x1 = 0.03689) was 3.354 ± 0.036 mPa·s and the viscosity (303.15 K, 101 kPa, x1 = 0.08234) was 2.83 ± 0.03 mPa·s. It also gave a viscosity (303.15 K, 101 kPa, x1 = 0.1774) of 2.045 ± 0.022 mPa·s, a viscosity (303.15 K, 101 kPa, x1 = 0.2433) of 1.681 ± 0.018 mPa·s and a viscosity (303.15 K, 101 kPa, x1 = 0.3417) of 1.289 ± 0.014 mPa·s. For the same molecule, the viscosity (303.15 K, 101 kPa, x1 = 0.4228) was 1.068 ± 0.011 mPa·s, the viscosity (303.15 K, 101 kPa, x1 = 0.5142) was 0.867 ± 0.009 mPa·s and the viscosity (303.15 K, 101 kPa, x1 = 0.5898) was 0.744 ± 0.008 mPa·s. It also gave a viscosity (303.15 K, 101 kPa, x1 = 0.6726) of 0.638 ± 0.007 mPa·s, a viscosity (303.15 K, 101 kPa, x1 = 0.7604) of 0.55 ± 0.006 mPa·s and a viscosity (303.15 K, 101 kPa, x1 = 0.8168) of 0.505 ± 0.005 mPa·s. For the same molecule, the viscosity (303.15 K, 101 kPa, x1 = 0.8829) was 0.478 ± 0.005 mPa·s, the viscosity (303.15 K, 101 kPa, x1 = 0.9497) was 0.439 ± 0.005 mPa·s and the viscosity (313.15 K, 101 kPa, x1 = 0.02681) was 2.68 ± 0.029 mPa·s. The viscosity (313.15 K, 101 kPa, x1 = 0.04032) was 2.555 ± 0.027 mPa·s, the viscosity (313.15 K, 101 kPa, x1 = 0.07518) was 2.269 ± 0.024 mPa·s and the viscosity (313.15 K, 101 kPa, x1 = 0.1706) was 1.69 ± 0.018 mPa·s. For the same molecule, the viscosity (313.15 K, 101 kPa, x1 = 0.3414) was 1.091 ± 0.012 mPa·s, the viscosity (313.15 K, 101 kPa, x1 = 0.4234) was 0.908 ± 0.01 mPa·s and the viscosity (313.15 K, 101 kPa, x1 = 0.5104) was 0.758 ± 0.008 mPa·s. The viscosity (313.15 K, 101 kPa, x1 = 0.5912) was 0.651 ± 0.007 mPa·s, the viscosity (313.15 K, 101 kPa, x1 = 0.6717) was 0.565 ± 0.006 mPa·s and the viscosity (313.15 K, 101 kPa, x1 = 0.7706) was 0.482 ± 0.005 mPa·s. The viscosity (313.15 K, 101 kPa, x1 = 0.8138) was 0.467 ± 0.005 mPa·s, the viscosity (313.15 K, 101 kPa, x1 = 0.8786) was 0.432 ± 0.005 mPa·s and the viscosity (313.15 K, 101 kPa, x1 = 0.9463) was 0.397 ± 0.004 mPa·s.

With `CCC(C)=O` + CCCCCO the viscosity (293.15 K, 100 kPa, x1 = 0.0814) was 2.92 ± 0.29 mPa·s, the viscosity (293.15 K, 100 kPa, x1 = 0.1574) was 2.27 ± 0.23 mPa·s and the viscosity (293.15 K, 100 kPa, x1 = 0.2391) was 1.8 ± 0.18 mPa·s. It also gave a viscosity (293.15 K, 100 kPa, x1 = 0.3486) of 1.33 ± 0.13 mPa·s, a viscosity (293.15 K, 100 kPa, x1 = 0.4417) of 1.07 ± 0.11 mPa·s and a viscosity (293.15 K, 100 kPa, x1 = 0.5529) of 0.84 ± 0.08 mPa·s. It also gave a viscosity (293.15 K, 100 kPa, x1 = 0.6492) of 0.66 ± 0.07 mPa·s, a viscosity (293.15 K, 100 kPa, x1 = 0.7389) of 0.55 ± 0.06 mPa·s and a viscosity (293.15 K, 100 kPa, x1 = 0.8509) of 0.42 ± 0.04 mPa·s. The viscosity (293.15 K, 100 kPa, x1 = 0.9389) was 0.39 ± 0.04 mPa·s, the viscosity (303.15 K, 100 kPa, x1 = 0.0814) was 2.31 ± 0.23 mPa·s and the viscosity (303.15 K, 100 kPa, x1 = 0.1574) was 1.82 ± 0.18 mPa·s. It also gave a viscosity (303.15 K, 100 kPa, x1 = 0.2391) of 1.46 ± 0.15 mPa·s, a viscosity (303.15 K, 100 kPa, x1 = 0.3486) of 1.12 ± 0.11 mPa·s and a viscosity (303.15 K, 100 kPa, x1 = 0.4417) of 0.91 ± 0.09 mPa·s. The viscosity (303.15 K, 100 kPa, x1 = 0.5529) was 0.73 ± 0.07 mPa·s, the viscosity (303.15 K, 100 kPa, x1 = 0.6492) was 0.61 ± 0.06 mPa·s and the viscosity (303.15 K, 100 kPa, x1 = 0.7389) was 0.52 ± 0.05 mPa·s. It also gave a viscosity (303.15 K, 100 kPa, x1 = 0.8509) of 0.45 ± 0.05 mPa·s, a viscosity (303.15 K, 100 kPa, x1 = 0.9389) of 0.4 ± 0.04 mPa·s and a viscosity (313.15 K, 100 kPa, x1 = 0.0814) of 1.8 ± 0.18 mPa·s. The viscosity (313.15 K, 100 kPa, x1 = 0.1574) was 1.45 ± 0.15 mPa·s, the viscosity (313.15 K, 100 kPa, x1 = 0.2391) was 1.2 ± 0.12 mPa·s and the viscosity (313.15 K, 100 kPa, x1 = 0.3486) was 0.92 ± 0.09 mPa·s. The viscosity (313.15 K, 100 kPa, x1 = 0.4417) was 0.77 ± 0.08 mPa·s, the viscosity (313.15 K, 100 kPa, x1 = 0.5529) was 0.63 ± 0.06 mPa·s and the viscosity (313.15 K, 100 kPa, x1 = 0.6492) was 0.54 ± 0.05 mPa·s. It also gave a viscosity (313.15 K, 100 kPa, x1 = 0.7389) of 0.46 ± 0.05 mPa·s, a viscosity (313.15 K, 100 kPa, x1 = 0.8509) of 0.4 ± 0.04 mPa·s and a viscosity (313.15 K, 100 kPa, x1 = 0.9389) of 0.36 ± 0.04 mPa·s. For the same molecule, the viscosity (323.15 K, 100 kPa, x1 = 0.0814) was 1.45 ± 0.15 mPa·s, the viscosity (323.15 K, 100 kPa, x1 = 0.1574) was 1.18 ± 0.12 mPa·s and the viscosity (323.15 K, 100 kPa, x1 = 0.2391) was 0.99 ± 0.1 mPa·s. The viscosity (323.15 K, 100 kPa, x1 = 0.3486) was 0.78 ± 0.08 mPa·s, the viscosity (323.15 K, 100 kPa, x1 = 0.4417) was 0.66 ± 0.07 mPa·s and the viscosity (323.15 K, 100 kPa, x1 = 0.5529) was 0.54 ± 0.05 mPa·s. For the same molecule, the viscosity (323.15 K, 100 kPa, x1 = 0.6492) was 0.46 ± 0.05 mPa·s, the viscosity (323.15 K, 100 kPa, x1 = 0.7389) was 0.4 ± 0.04 mPa·s and the viscosity (323.15 K, 100 kPa, x1 = 0.8509) was 0.35 ± 0.04 mPa·s. It also gave a viscosity (323.15 K, 100 kPa, x1 = 0.9389) of 0.32 ± 0.03 mPa·s.
